The source of these data is patent publication US11649245B2, “Cyclopropylamine compound as LSD1 inhibitor and use thereof” (HELIOEAST PHARMACEUTICAL CO., LTD., priority 2018, dated 2023).

Each structure is given as a SMILES string. pIC50: −log10 of the molar value. Counter-ions that a name gives are not always drawn.

In one data set the target is human LSD1 (Homo sapiens, UniProt O60341). Nature of the data set: In vitro enzyme activity screening against LSD1 (HRP/Amplex Red fluorescence coupling enzyme method). It counts as biochemical. The note with it: human LSD1, histone H3K4me peptide substrate 20 μM. The procedure: The purpose of this test was to detect the in vitro inhibitory activity of the compounds against LSD1. The enzyme used in this test was human LSD1, the standard substrate was histone H3K4me peptide (20 μM), the fluorescence coupling enzyme method was used to determine the activity of the compound by combining horseradish peroxidase (HRP) and fluorescent reagent Amplex Red to detect the H2O2 generation as a result of the reaction of LSD1. Compounds were tested in 10-dose IC50 mode with a 3-fold serial dilution starting at 10 μM. The enzyme and […] to start the reaction. Fluorescence detector: Envision, excitation wavelength: Ex/Em=530/590 […]

The next data set deals with HL60 cells. Description: Antiproliferation activity on HL60 cells (CellTiter-Glo, 6 days). The class given is cell-based. The note with it: Homo sapiens, HL-60, 144 h, incubated for 6 days. The text has this:
Experimental purpose: to detect the antiproliferation activity of the compound to be tested on HL60 cells.
Experimental materials: RPMI-1640 culture medium, fetal bovine serum, penicillin/streptomycin antibiotics purchased from Wisent. CellTiter-Glo (chemiluminescent cell viability assay reagent) reagents purchased from Promega. HL60 cell line purchased from Nanjing Cobioer Co., Ltd. Nivo multi-label reader (PerkinElmer).
Experimental method: HL60 cells were planted in a white 384-well plate, 40 μL of cell suspension per well, 600 HL60 cells were contained therein. The cell plate was placed in a carbon dioxide incubator for overnight culture. The compounds to be tested were diluted 5-fold with a pipet until the 10th concentration, i.e., diluted from 2 mM to 1.024 nM, double duplicate well experiment was set. 78 μL of the culture medium was added to an intermediate plate, and then 2 μL per well of the serially diluted compounds were transferred to the corresponding positions on the intermediate plate, after mixing, 10 μL per well was transferred to the cell plate. The cell plate was incubated in a carbon dioxide incubator for 6 days. Another cell plate was prepared and the signal value on the day of dosing was read as the maximum value (Max value in the equation below) to participate in the data analysis. 20 μL of chemiluminescent cell viability assay reagent was added to each well of this cell plate, which was incubated at room temperature for 10 minutes to stabilize the luminescence signal. The multi-label reader was used for reading.
(§1) Data analysis: the equation (Sample-Min)/(Max-Min)*100% was used to convert the original data into the inhibition rate, the IC50 value can be obtained by curve fitting of four-parameters (“log(inhibitor) vs. response—Variable slope” mode in GraphPad Prism)).

In a further data set the test system is MV-4-11 cells. Nature of the data set: Antiproliferation activity on MV-4-11 cells (CellTiter-Glo, 6 days). The note with it: Homo sapiens, MV4-11, 144 h, incubated for 6 days. It counts as cell-based.
Description: Experimental purpose: to detect the antiproliferation activity of the compound to be tested on MV-4-11 cells.
Experimental materials: IMDM culture medium, fetal bovine serum, penicillin/streptomycin antibiotics purchased from Wisent. CellTiter-Glo (chemiluminescent cell viability assay reagent) reagents purchased from Promega. MV-4-11 cell line was purchased from Nanjing Cobioer Co., Ltd. Nivo Multi-Marker Analyzer (PerkinElmer).
Experimental method: MV-4-11 cells were planted in a white 96-well plate, 80 μL of cell suspension per well, which contained 6000 MV-4-11 cells. The cell plate was placed in a carbon dioxide incubator for overnight culture.
The compounds to be tested were diluted 5-fold with a pipet until the 8th concentration, i.e., diluted from 2 mM to 25.6 nM, double duplicate well experiment was set. 78 μL of the culture medium was added to an intermediate plate, and then 2 μL per well of the serially diluted compounds were transferred to the corresponding positions on the intermediate plate, after mixing, 20 μL per well was transferred to the cell plate. The cell plate was incubated in a carbon dioxide incubator for 6 days. Another cell plate was prepared and the signal value on the day of dosing was read as the maximum value (Max value in the equation below) to participate in the data analysis. 25 μL of the chemiluminescent cell viability assay reagent was added to each well of this cell plate, which was incubated at room temperature for 10 minutes to stabilize the luminescence signal. The multi-label analyzer was used for reading.
as §1
For orientation: ATP-based viability assays read luminescence as a measure of living cells.

The subject of a further data set is NCI-H1417 cells. Description: Antiproliferation activity on NCI-H1417 cells (CellTiter-Glo, 10 days). It counts as cell-based, human. As to conditions: Homo sapiens, NCI-H1417, 240 h, incubated for 10 days. The procedure: Experimental purpose: to detect the antiproliferation activity of the compounds on NCI-H1417 cells.
Experimental materials: RPMI 1640 culture medium, fetal bovine serum, Promega CellTiter-Glo reagent. NCI-H1417 cell line purchased from ATCC. Envision multi-label reader (PerkinElmer).
Experimental method: the compounds were dissolved to 10 mM, then the compounds were diluted 5 times with DMSO in a compound plate, the compounds were diluted 3-fold with Bravo from a starting concentration of 2 mM to the 10th concentration, 250 nL of the solutions were transferred to the upper and lower duplicate wells on a blank 384 cell plate by Echo transfer plate, cell suspension of per well/1000 cells/50 μL was added to the transferred 250 nL DMSO/compound, the compounds were diluted 200-fold, i.e., the initial action concentration was 10 μM. The cell plate was placed in a carbon dioxide incubator and incubated for 10 days. 25 μL of Promega CellTiter-Glo reagent was added to each well on the cell plate and was shaken at room temperature for 10 minutes to stabilize the luminescence signal. Readings were performed by PerkinElmer Envision multi-label analyzer.
Data analysis: the equation (Max-Ratio)/(Max-Min)*100% was used to convert the original data into the inhibition rate, the value of IC50 can be obtained by curve fitting of four-parameters (the 205 mode in XLFITS, iDBS).

The nature of data set [1]: In vivo pharmacokinetics in CD-1 mice. As to conditions: male, CD-1, mouse, plasma, male CD-1 mice; for half-life / clearance / Vd: iv, 1 mg/kg; for half-life: IV 1 mg/kg, read-out: Half-life T1/2 (IV) (converted); for clearance / Vd / Cmax: study doses 1 mg/kg intravenous, 2 mg/kg oral; for clearance: read-out: Clearance CL; for Vd: read-out: Volumes of distribution Vdss; for Cmax: route not given, read-out: Max concentration Cmax; for AUC(0-t) / bioavailability: po, 2 mg/kg; for AUC(0-t): PO 2 mg/kg, read-out: The area under the plasma concentration-time curve AUC0-last PO; for bioavailability: oral 2 mg/kg vs intravenous 1 mg/kg, read-out: Bioavailability F. The procedure: CD-1 mice (male, 7-9 weeks old, Shanghai Slac)
The rodent pharmacokinetic characteristics after intravenous injection and oral administration of the compounds were tested by standard protocols, in the experiment, the candidate compounds were formulated into clear solutions and administrated to mice via a single intravenous injection and oral administration. The vehicle for intravenous injection and oral administration was a mixed solution of 10% of dimethyl sulfoxide and 90% of 10% hydroxypropyl β cyclodextrin. This project used four male CD-1 mice, two mice were administered intravenously, with a dose of 1 mg/kg, and plasma samples were collected at 0 hour (before administration) and 0.0833, 0.25, 0.5, 1, 2, 4, 8, 24 hours after administration. The other two mice were orally administered by gavage, with a dose of 2 mg/kg, plasma samples were collected at 0 hour (before administration) and 0.25, 0.5, 1, 2, 4, 8, 24 hours after administration, whole blood samples were collected within 24 hours, which were centrifuged at 3000 g for 15 minutes, and the supernatants were separated to obtain plasma samples, 4 times volume of acetonitrile solutions containing internal standard were added to precipitate the protein, the mixtures were centrifuged to obtain the supernatants, the supernatants were added with water of equal volume and centrifuged again to take the supernatant for injection, and the blood drug concentration was quantitatively analyzed by the LC-MS/MS analysis method, and pharmacokinetic parameters were calculated, such as max concentration (Cmax), clearance (CL), half-life (T1/2), volumes of distribution (Vdss), the area under the plasma concentration-time curve (AUC0-last), bioavailability (F) etc.

In the case of `c1ccc([C@@H]2C[C@H]2NC2COC3(CCN(Cc4ccc(-c5nn[nH]n5)cc4)CC3)C2)cc1` (some centres unmarked) [Hydrochloride of the compound 24], the pIC50 on human LSD1 is 7.38; in the data set with HL60 cells, 7.41; with MV-4-11 cells, 7.42. At human LSD1, `O=C(O)[C@H]1CC[C@H](CN2CCC3(CC2)CC(N[C@@H]2C[C@H]2c2ccccc2)CO3)CC1` (some centres unmarked) [Hydrochloride of the compound 27] gave a pIC50 of 5.75. As to `O=C(O)c1cnc(CN2CCC3(CC2)CC(N[C@@H]2C[C@H]2c2ccccc2)CO3)cn1` (some centres unmarked) [Hydrochloride of the compound 18], the pIC50 is 7.03 at human LSD1, 7.69 with HL60 cells and 7.80 in the data set with MV-4-11 cells. For the compound `O=C(O)c1ccc(N2CCC3(CC2)CC(N[C@@H]2C[C@H]2c2ccccc2)CO3)cc1` (some centres unmarked) [Hydrochloride of the compound 11], the pIC50 against human LSD1 is 5.54. At human LSD1, `O=C(O)c1ccc(C(=O)N2CCC3(CC2)CC(N[C@@H]2C[C@H]2c2ccccc2)CO3)cc1` (some centres unmarked) [Hydrochloride of the compound 22] gave a pIC50 of 6.04.

For the compound `O=C(O)c1ccc(OC(=O)N2CCC3(CC2)CC(N[C@@H]2C[C@H]2c2ccccc2)CO3)cc1` (some centres unmarked) [Hydrochloride of the compound 25], the pIC50 on human LSD1 is 5.76. On the same count and under the same terms, then `O=C(O)c1ccc(NC(=O)N2CCC3(CC2)CC(N[C@@H]2C[C@H]2c2ccccc2)CO3)cc1` (some centres unmarked) [Hydrochloride of the compound 1], with 5.77. `O=C(O)C1(CN2CCC3(CC2)CC(N[C@@H]2C[C@H]2c2ccccc2)CO3)CC1` (some centres unmarked) [Hydrochloride of the compound 31] gave a pIC50 at human LSD1 of 5.67. In turn, `O=C(O)C1CC(CN2CCC3(CC2)CC(N[C@@H]2C[C@H]2c2ccccc2)CO3)C1` (some centres unmarked) [Hydrochloride of the compound 29] gave a pIC50 on human LSD1 of 5.78. Same read-out and setting: under `O=C(O)c1cccc(CN2CCC3(CC2)CC(N[C@@H]2C[C@H]2c2ccccc2)CO3)c1` (some centres unmarked) [Hydrochloride of the compound 3] stands 7.01. Still for that read-out and setting: then `O=C(O)Cc1ccc(N2CCC3(CC2)CC(N[C@@H]2C[C@H]2c2ccccc2)CO3)cc1` (some centres unmarked) [Hydrochloride of the compound 12], with 5.86; and `c1ccc([C@@H]2C[C@H]2NC2COC3(CCN(CCc4nn[nH]n4)CC3)C2)cc1` (some centres unmarked) [Hydrochloride of the compound 33], with 7.32; and `FC(F)(F)c1ccc(CN2CCC3(CC2)CC(N[C@@H]2C[C@H]2c2ccccc2)CO3)cc1` (some centres unmarked) [Hydrochloride of the compound 10], with 7.11.

At human LSD1, `Clc1ccc(CN2CCC3(CC2)CC(N[C@@H]2C[C@H]2c2ccccc2)CO3)cc1` (some centres unmarked) [Hydrochloride of the compound 13] had a pIC50 of 7.33. Against the preceding compound, the pIC50 is 0.22 log units higher. The same measure, in the same setting: under `O=C(O)c1ccc(CN2CC3(CC(N[C@@H]4C[C@H]4c4ccccc4)CO3)C2)cc1` (some centres unmarked) [Hydrochloride of the compound 2] stands 5.80.

`O=C(O)c1ccc(CN2CC3(CC(N[C@@H]4C[C@H]4c4ccccc4)CCO3)C2)cc1` (some centres unmarked) [Hydrochloride of the compound 4] showed a pIC50 at human LSD1 of 6.03. Compound `NC(=O)c1ccc(CN2CCC3(CC2)CC(N[C@@H]2C[C@H]2c2ccccc2)CO3)cc1` (some centres unmarked) [Hydrochloride of the compound 23] showed a pIC50 against human LSD1 of 7.19. This compound also gave a pIC50 in the data set on NCI-H1417 cells of 8.77. In data set [1], the half-life was 4.32 h, the clearance was determined as 68.7 mL/min/kg, the Vd was 18.6 L/kg and the Cmax stood at 144 nM. For the same compound, in data set [1], the AUC(0-t) came to 0.36 µM·h and the bioavailability worked out at 37.2%.

Take `O=C(O)c1ccccc1CN1CCC2(CC1)CC(N[C@@H]1C[C@H]1c1ccccc1)CO2` (some centres unmarked) [Hydrochloride of the compound 7]: the pIC50 against human LSD1 was 7.35. Turning to `O=C(O)c1ccc(CN2CCC3(CC2)CC(N[C@@H]2C[C@H]2c2ccccc2)CO3)nc1` (some centres unmarked) [Hydrochloride of the compound 14], on human LSD1, the negative logarithm of the IC50 (pIC50) was 6.93. Besides, in data set [1], the half-life is 0.874 h, the clearance was 16.9 mL/min/kg, the Vd stood at 0.551 L/kg and the Cmax amounted to 629 nM. Besides, in data set [1], the AUC(0-t) came to 1.38 µM·h and the bioavailability amounted to 28.7%. `O=C(O)c1ccc(CN2CCC3(CC2)CC(N[C@@H]2C[C@H]2c2ccccc2)CCO3)cc1` (some centres unmarked) [Hydrochloride of the compound 26]: the pIC50 against human LSD1 is 6.57. The same measure, in the same setting: under `O=C(O)C12CCC(CN3CCC4(CC3)CC(N[C@@H]3C[C@H]3c3ccccc3)CO4)(CC1)CC2` (some centres unmarked) [Hydrochloride of the compound 28] stands 5.84; under `Fc1ccc(CN2CCC3(CC2)CC(N[C@@H]2C[C@H]2c2ccccc2)CO3)cc1` (some centres unmarked) [Hydrochloride of the compound 9], 7.42; under `O=C(O)c1ccc(CN2CCC3(CC2)OCC3N[C@@H]2C[C@H]2c2ccccc2)cc1` (some centres unmarked) [Hydrochloride of the compound 5], 5.41. On the same count and under the same terms, under `COc1ccc(CN2CCC3(CC2)CC(N[C@@H]2C[C@H]2c2ccccc2)CO3)cc1` (some centres unmarked) [Hydrochloride of the compound 8] stands 7.40.

A word on the pIC50: it is −log10 of the IC50, conventionally taken in molar units. Higher therefore signals a small IC50. Broadly, the bioavailability is the share of a dose that reaches the circulation, judged against a reference dose that is usually intravenous.
